Results on one molecule are retold here after patent US12398117B2, “Heteroarylamidopyridinol derivative and pharmaceutical composition comprising same as active ingredient for prevention or treatment of autoimmune disease” (INNOVO THERAPEUTICS INC., priority 2019, dated 2025).

Assay [1] deals with adhesion of intestinal epithelial cells (HT-29) and monocytic cells (U937) induced by IL-6. The assay can be described thus: Inhibition of IL-6-induced adhesion of monocytes and intestinal epithelial cells. The format is cell-based, human. Particulars: Homo sapiens. An outline of the steps:
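HT-29 monolayers pretreated 1 h with test drug in 1% FBS medium, then co-incubated 3 h at 37 °C with BCECF-labeled U937 monocytes plus IL-6 (10 ng/mL). After removal of non-adherent cells, bound monocytes quantified by BCECF fluorescence of Triton X-100 lysates.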

Assay [2] concerns collagen-induced rheumatoid arthritis animal model. Briefly: Oral efficacy in collagen-induced rheumatoid arthritis (CIA) mouse model. The format is in vivo, DBA/1J mice. The procedure: 12-week-old normal male mice and arthritis-induced DBA/1J mice were purchased from Central Lab. Animal Inc [To induce arthritis, DBA/1J mice were sensitized by injecting a mixed solution of Complete Freund's Adjuvant (CFA; DIFCO, Detroit, MI) and Bovine Type II collagen (1:1, v/v) intradermally at the pinna base at 8 weeks of age, and then, secondary sensitization was performed by intradermal injection at the tail head at 11 weeks of age]. The purchased arthritis mice were acclimatized to the laboratory environment for a week, and then oral administration of the drug was started.
Visual observation of arthritic lesions was performed using the following scores based on a reference (Barnett et al., 1998).
Therefore, the highest score for arthritic lesions was 16 per mouse.
The hind paw thickness, which is one of the pathological indices of rheumatoid arthritis, was measured using a caliper.
The right hind leg of each mouse was extracted, and all skin and muscles were removed, leaving only the bones and joints. The hind leg was fixed in 4% paraformaldehyde solution for 2 days, then immersed in 10% formic acid for 5 days to decalcify, and then immersed in 30% sucrose solution. When the tissue subsided, the articular tissue was cut into […] thick using a cryomicrotome (Microm HM 450, Thermo Fisher Scientific, Germany) and stored in a cryopreservation solution. Staining was performed using the stored tissue sections. After attaching the tissue sections to the slide glass, they were hydrated with 100%, 95%, 70%, and 50% ethanol solutions, and some were stained with safranin and others were stained with hematoxylin/eosin. For safranin staining, the tissue sections were first stained with 0.1% fast green solution, washed with 1% acetic acid solution, and then stained with 1% safranin solution. Thereafter, the tissue sections were dehydrated by immersing in ethanol solutions in the reverse order of hydration, and then preserved in xylene solution and mounting solution, and photographed under a microscope. Hematoxylin/eosin staining was performed in the same manner as in the colon tissue staining. The tissue sections were dehydrated, preserved in xylene solution and mounting solution, and observed under a microscope.
The degree of microscopic tissue damage of the stained articular tissue was measured using the following scores.
After the spleen and draining lymph nodes of the mice were extracted, the number of immune cells was counted. To confirm the distribution of Th1 and Th17 cells, the immune cells obtained from each organ were stimulated using PMA/Ionomycin and Golgi stop.
After staining using an anti-IFN-γ antibody that can identify Th1 cells, an anti-IL-17 antibody that can identify Th17 cells, and an anti-CD8 antibody that can identify cytotoxic T cells, the proportion of inflammatory cells among the total immune cells was confirmed using flow cytometry.

Usually IC50 stands for the point on the concentration scale where inhibition reaches its midpoint. A lower IC50 goes with greater potency in that assay. For `Cc1ccc2[nH]c(C(=O)Nc3nc(C)c(O)c(C)c3C)cc2c1` [Compound X-09, N-(5-hydroxy-3,4,6-trimethylpyridin-2-yl)-5-methyl-1H-indole-2-carboxamide], in assay [1] (3 h, test drug 1 μM, IL-6 10 ng/mL, HT-29/U937, read-out: inhibitory activity (%)), the inhibition at 1 µM turned out to be 71.7%. The molecule also came in with a concentration for half-maximal inhibition (IC50) in assay [1] (inhibition of adhesion by IL-6) of 340 nM. The “number of inflammatory cells Th1 and Th17 and activated CD8 cells in spleen” value in assay [2] (after 35 days of drug administration, FIG. 8B) is recorded as “dose-dependent decrease”. In addition, the “number of inflammatory cells Th1 and Th17 and activated CD8 cells in draining lymph node” value in assay [2] (after 35 days of drug administration, FIG. 8C) is given as “dose-dependent effect”. In assay [2] (oral 50 mg/kg, 35th day of drug administration), this molecule had a hind paw thickness of 1.70 mm. Besides, in assay [2] (oral 50 mg/kg, 35th day of drug administration, maximum score 16), the arthritis score stood at 7.2. For the same molecule, in assay [2] (oral, up to 35 days, FIG. 5A), the “degree of arthritis (visual observation score)” value is “significantly improved dose dependently”.
